Experimental findings from US20140011799A1 (Bristol-Myers Squibb Company, priority 2012, published 2014) are described below.

pIC50: −log10 of the molar value. Several values for one entry are separate records, joined by “and”; a condition that tells them apart may be missing. Equal values may be shown once.

The target of one assay is T1, hepatic lipase (HL) (Homo sapiens, UniProt P11150).
T1 construct: made in house; host or cells: COS cells (conditioned medium, partially purified)
T1 sequence (P11150 23-499): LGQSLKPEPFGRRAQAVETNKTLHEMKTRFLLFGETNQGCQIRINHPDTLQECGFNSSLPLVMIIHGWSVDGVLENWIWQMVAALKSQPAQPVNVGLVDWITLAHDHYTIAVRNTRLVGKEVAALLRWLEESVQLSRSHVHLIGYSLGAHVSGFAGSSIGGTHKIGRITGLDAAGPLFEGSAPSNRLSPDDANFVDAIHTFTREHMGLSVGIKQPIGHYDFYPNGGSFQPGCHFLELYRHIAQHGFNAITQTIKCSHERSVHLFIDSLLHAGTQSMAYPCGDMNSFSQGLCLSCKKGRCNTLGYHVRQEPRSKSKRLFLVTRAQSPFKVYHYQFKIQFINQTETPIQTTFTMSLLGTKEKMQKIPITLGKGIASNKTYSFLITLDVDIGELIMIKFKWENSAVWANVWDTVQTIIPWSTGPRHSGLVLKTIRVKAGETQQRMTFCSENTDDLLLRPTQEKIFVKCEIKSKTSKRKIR
Description: Hepatic lipase (HL) enzymatic assay, fluorescent substrate A10070 in DMPG vesicles. In kind it is biochemical. To be noted: HL partially purified from conditioned media of COS cells; compound preincubated 30 min at 37° C; read-out: HL IC50. As for the experimental part: Endothelial lipase (EL) and hepatic lipase (HL) activities were measured using a fluorescent substrate, A10070, (Invitrogen, CA) doped into an artificial vesicle containing DMPG (Avanti Polar Lipids) as the excipient. Vesicles were prepared by combining 571 μL of 29 mM DMPG in a 1:1 mixture of MeOH and CHCl3 with 2000 μL of 1 mM A10070 in a 1:1 mixture of MeOH and CHCl3. The mixture was dried under nitrogen in multiple vials then resuspended in 20 mL total volume of 50 mM HEPES pH 8.0 buffer containing 50 mM NaCl and 0.2 mM EDTA. The sample was allowed to sit at room temperature for 15 min and then was sonicated 3×4 mins on ice with a Branson Sonicator using duty cycle 1. This preparation provides vesicles with a mole fraction of 0.11 for the FRET substrate.
The enzymatic assay was measured using 384-well white Optiplates. Each well contained 20 μL of assay buffer (50 mM HEPES pH 8.0, 50 mM NaCl and 1 mM CaCl2) and 0.25 μL of a DMSO solution containing a compound of interest. EL or HL (10 μL) was added and allowed to incubate with the compound for 30 min at 37° C. The source of EL was conditioned media obtained from HT-1080 cells that were transformed using RAGE technology (Athersys) to overexpress endogenous EL, and HL was partially purified from conditioned media obtained from COS cells overexpressing HL. The reaction was started by the addition of 10 μL of a 1:10 dilution of vesicles. The final total reaction volume was […]. The reaction rates were measured on a Gemini plate reader with an excitation wavelength of 490 nm and an emission wavelength of 530 nm. Readings were taken over a period of 60 minutes, and the slope between 300 and 900 secs of the readout was used to calculate the rate of the reaction.

In another assay the target is T2, Endothelial lipase (EL) (Homo sapiens, UniProt Q9Y5X9).
T2 construct: HT-1080 cells that were transformed using RAGE technology (Athersys) to overexpress endogenous EL; endogenous in cells; conditioned medium used
T2 sequence (Q9Y5X9 21-500): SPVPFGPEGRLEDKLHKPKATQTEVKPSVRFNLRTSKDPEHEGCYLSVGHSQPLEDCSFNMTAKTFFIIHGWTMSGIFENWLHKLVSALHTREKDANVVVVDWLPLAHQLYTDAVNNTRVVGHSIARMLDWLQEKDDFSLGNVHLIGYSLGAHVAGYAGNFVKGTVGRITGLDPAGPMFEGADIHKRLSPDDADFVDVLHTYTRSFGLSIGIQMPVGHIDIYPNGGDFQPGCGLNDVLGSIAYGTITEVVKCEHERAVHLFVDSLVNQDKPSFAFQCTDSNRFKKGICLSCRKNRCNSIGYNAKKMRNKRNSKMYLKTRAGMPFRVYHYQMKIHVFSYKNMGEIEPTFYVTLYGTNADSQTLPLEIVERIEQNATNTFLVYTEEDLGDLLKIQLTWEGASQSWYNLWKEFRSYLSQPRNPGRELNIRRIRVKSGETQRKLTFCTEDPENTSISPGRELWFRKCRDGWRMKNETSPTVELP
As to the kind of experiment: Endothelial lipase (EL) enzymatic assay, fluorescent substrate A10070 in DMPG vesicles. To be noted: EL from conditioned media of HT-1080 cells; compound preincubated 30 min at 37° C; read-out: EL IC50. It is filed as biochemical. Put shortly:
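Substrate A10070 sits in sonicated DMPG vesicles at 0.11 mole fraction. Lipase and compound preincubated 30 min, 37° C, in HEPES pH 8.0 buffer with CaCl2.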

In general, pIC50 refers to −log10 of the IC50, conventionally taken in molar units. On to `CS(=O)(=O)C(c1nnc(CNS(N)(=O)=O)o1)c1nc2ccc(-c3cccc(C(=O)Nc4nncs4)c3)cc2s1` (stereo not shown) [Example 256, 3-{2-[methanesulfonyl({5-[(sulfamoylamino)methyl]-1,3,4-oxadiazol-2-yl})methyl]-1,3-benzothiazol-6-yl}-N-(1,3,4-thiadiazol-2-yl)benzamide], for which the figures for the negative-log IC50 (pIC50) on hepatic lipase (HL) and at Endothelial lipase (EL) were 7.80 and 8.70, respectively.
With `CS(=O)(=O)C(c1nnc(CC2SC(=O)NC2=O)o1)c1nc2ccc(-c3ccnc(C#N)c3)cc2s1` (stereo not shown) [Example 103, 4-(2-((5-((2,4-dioxo-1,3-thiazolidin-5-yl)methyl)-1,3,4-oxadiazol-2-yl)(methylsulfonyl)methyl)-1,3-benzothiazol-6-yl)-2-pyridinecarbonitrile], the pIC50 at hepatic lipase (HL) was > 8.00 and 7.44; on Endothelial lipase (EL), over 8.00.
Take `CS(=O)(=O)C(c1nnc(CC2SC(=O)NC2=O)o1)c1nc2ccc(C#N)cc2s1` (stereo not shown) [Example 190, 2-((5-((2,4-Dioxo-1,3-thiazolidin-5-yl)methyl)-1,3,4-oxadiazol-2-yl)(methylsulfonyl)methyl)-1,3-benzothiazole-6-carbonitrile]: the pIC50 on hepatic lipase (HL) is 6.38; on Endothelial lipase (EL) it was over 8.00.
For `CS(=O)(=O)C(c1nnc(C[C@@H]2NS(=O)(=O)N(C3CC3)C2=O)o1)c1nc2ccc(-c3ccccc3)cc2s1` (stereo partly shown) [Example 181] the same measures were 7.25 and 6.89.
Regarding `CC(C)Cn1cc(-c2cc(F)c3nc(C(c4nnc(CC5SC(=O)NC5=O)o4)S(=O)(=O)Cc4ccccc4)sc3c2)cn1` (stereo not shown) [Example 165, 5-((5-((benzylsulfonyl)(4-fluoro-6-(1-isobutyl-1H-pyrazol-4-yl)-1,3-benzothiazol-2-yl)methyl)-1,3,4-oxadiazol-2-yl)methyl)-1,3-thiazolidine-2,4-dione], the pIC50 at hepatic lipase (HL) was 7.62; at Endothelial lipase (EL) it was over 8.00.
Regarding `NS(=O)(=O)NCc1nnc(C(c2nc3ccc(-c4cnn(-c5ccc(F)cc5)c4)cc3s2)S(=O)(=O)Cc2ccccc2)o1` (stereo not shown) [Example 138, N-((5-((benzylsulfonyl)(6-(1-(4-fluorophenyl)-1H-pyrazol-4-yl)-1,3-benzothiazol-2-yl)methyl)-1,3,4-oxadiazol-2-yl)methyl)sulfamide], the negative-log IC50 (pIC50) at hepatic lipase (HL) and at Endothelial lipase (EL) was over 8.00 in each case.
In the case of `CS(=O)(=O)C(c1nnc(CNS(N)(=O)=O)o1)c1nc2cc(-c3ncccn3)ccc2s1` (stereo not shown) [Example 246, N-[(5-{methanesulfonyl[5-(pyrimidin-2-yl)-1,3-benzothiazol-2-yl]methyl}-1,3,4-oxadiazol-2-yl)methyl]aminosulfonamide], the pIC50 at hepatic lipase (HL) was 8.22; on Endothelial lipase (EL), 8.05.
For the compound `CC1(Cc2nnc(C(c3nc4ccc(-c5cccc(C(=O)N6CC[C@@H](O)C6)c5)cc4s3)S(C)(=O)=O)o2)NC(=O)NC1=O` (stereo partly drawn) [Example 219, 5-({5-[(6-{3-[(3R)-3-hydroxypyrrolidine-1-carbonyl]phenyl}-1,3-benzothiazol-2-yl) (methanesulfonyl)methyl]-1,3,4-oxadiazol-2-yl}methyl)-5-methyl-imidazolidine-2,4-dione], the values for the pIC50 at hepatic lipase (HL) and on Endothelial lipase (EL) were 5.64 and 8.70, respectively.
Take `O=C(Cc1nnc(C(c2nc3ccc(-c4ccc(C(=O)N5CCOCC5)cc4)cc3s2)S(=O)(=O)Cc2ccccc2)o1)NCC1(O)CCC1` (stereo not shown) [Example 178, 2-(5-((benzylsulfonyl)(6-(4-(4-morpholinylcarbonyl)phenyl)-1,3-benzothiazol-2-yl)methyl)-1,3,4-oxadiazol-2-yl)-N-((1-hydroxycyclobutyl)methyl) acetamide]: the pIC50 on hepatic lipase (HL) is 6.56; on Endothelial lipase (EL), over 8.00.
For the compound `NS(=O)(=O)NCc1nnc(C(c2nc3ccc(-c4ccc(Cl)c(F)c4)cc3s2)S(=O)(=O)Cc2ccccc2)o1` (stereo not shown) [Example 140, N-((5-((benzylsulfonyl)(6-(4-chloro-3-fluorophenyl)-1,3-benzothiazol-2-yl)methyl)-1,3,4-oxadiazol-2-yl)methy) sulfamide], the pIC50 at hepatic lipase (HL) and at Endothelial lipase (EL) was over 8.00 in each case.
Take `COc1cc(-c2ccc3nc(C(c4nnc(CNS(N)(=O)=O)o4)S(C)(=O)=O)sc3c2)ccn1` (stereo not shown) [Example 131, N-((5-((6-(2-methoxy-4-pyridinyl)-1,3-benzothiazol-2-yl)(methylsulfonyl)methyl)-1,3,4-oxadiazol-2-yl)methyl)sulfamide]: the values for the pIC50 at hepatic lipase (HL) and at Endothelial lipase (EL) were 6.99 and over 8.00, respectively.
In the case of `CS(=O)(=O)C(c1nnc(C[C@@H]2NS(=O)(=O)NC2=O)o1)c1nc2ccc(-c3ccccc3)cc2s1` (stereo partly drawn) [Example 45, (4S)-4-((5-((Methylsulfonyl)(6-phenylbenzo[d]thiazol-2-yl)methyl)-1,3,4-oxadiazol-2-yl)methyl)-1,2,5-thiadiazolidin-3-one 1,1-dioxide], the pIC50 at Endothelial lipase (EL) is over 8.00.
As to `CC1(Cc2nnc(C(c3nc4ccc(-c5ccc(F)nc5)cc4s3)S(=O)(=O)Cc3ccccc3)o2)SC(=O)NC1=O` (single isomer, unassigned; isomer a) [Example 1, 5-((5-((Benzylsulfonyl)(6-(6-fluoropyridin-3-yl)benzo[d]thiazol-2-yl)methyl)-1,3,4-oxadiazol-2-yl)methyl)-5-methylthiazolidine-2,4-dione (Isomer A)], the pIC50 on Endothelial lipase (EL) is over 8.00.
On to `CC1(Cc2nnc(C(c3nc4ccc(-c5ccc(F)nc5)cc4s3)S(=O)(=O)Cc3ccccc3)o2)NC(=O)NC1=O` (single isomer, unassigned; isomer a) [Example 6, 5-((5-((benzylsulfonyl)(6-(6-fluoropyridin-3-yl)benzo[d]thiazol-2-yl)methyl)-1,3,4-oxadiazol-2-yl)methyl)-5-methylimidazolidine-2,4-dione (Isomer A)], for which the pIC50 at Endothelial lipase (EL) is 7.96.
Consider `CC1(Cc2nnc(C(c3nc4ccc(-c5ccc(F)nc5)cc4s3)S(=O)(=O)Cc3ccccc3)o2)SC(=O)NC1=O` (single isomer, unassigned; isomer b) [Example 4, 5-((5-((benzylsulfonyl)(6-(6-fluoropyridin-3-yl)benzo[d]thiazol-2-yl)methyl)-1,3,4-oxadiazol-2-yl)methyl)-5-methylthiazolidine-2,4-dione (Isomer B)], for which the pIC50 on Endothelial lipase (EL) was over 8.00.
On the same count and under the same terms, the same measure for `CC1(Cc2nnc(C(c3nc4ccc(-c5ccnc(F)c5)cc4s3)S(C)(=O)=O)o2)NC(=O)NC1=O` (single isomer, unassigned; isomer b) [Example 12, 5-((5-((6-(2-fluoropyridin-4-yl)benzo[d]thiazol-2-yl)(methylsulfonyl)methyl)-1,3,4-oxadiazol-2-yl)methyl)-5-methylimidazolidine-2,4-dione (Isomer B)]: 7.27.
The same measure, in the same setting: the result for `CC1(Cc2nnc(C(c3nc4ccc(-c5ccnc(F)c5)cc4s3)S(=O)(=O)Cc3ccccc3)o2)NC(=O)NC1=O` (single isomer, unassigned; isomer b) [Example 10, 5-((5-((benzylsulfonyl)(6-(2-fluoropyridin-4-yl)benzo[d]thiazol-2-yl)methyl)-1,3,4-oxadiazol-2-yl)methyl)-5-methylimidazolidine-2,4-dione (Isomer B)] reads 7.72.
